Reference: article PMC10894229, “Novel antimicrobial peptides against Cutibacterium acnes designed by deep learning” (Scientific Reports, 2024)
Like-named read-outs stand apart in the source and are kept apart here. Ends that are not written are not given here.

What was measured:
[1] = test system: rabbit red blood cells (rRBCs); assay: Hemolytic activity assay; assay type: cell-based
Procedure: The hemolytic activity of peptides was assayed on rabbit red blood cells (rRBCs)[43]. Briefly, 2% rRBCs (150 μL) were incubated in the presence of various peptide concentrations (50 μL) at 37 °C for 2 h. After centrifugation, the supernatants were collected for measuring absorbance at 545 nm. PBS and 0.01% Triton X-100 were used as the negative (no hemolysis) and positive (100% hemolysis) control, respectively. Triplicate tests were performed.

[2] = test system: human keratinocytes (HaCaT); assay: HaCaT cell viability, CCK-8 assay; assay type: cell-based
Procedure: HaCaT (IM-H225) cells from Xiamen Immocell Biotechnology Co., Ltd were cultured in DMEM high glucose medium (4.5 g/L, Gibco, USA), supplemented with 10% fetal bovine serum (Gibco, USA), 100 U/mL of penicillin and 100 μg/mL of streptomycin in a 5% CO2 fully humidified environment at 37 °C.
Cell Counting Kit-8 (CCK-8; Biosharp, China) was used to assess the rate of cellular proliferation and quantify cell viability. In brief, HaCaT cells were seeded in 96-well plates with 100 μL of medium at a density of 1 × 10^4 cells per well. After incubation of cells overnight, peptides were added into the medium for another 24 h incubation. Then, 10 μL of CCK8 solution was applied to each well and incubated for 1 h at 37 °C. Finally, the absorbance values at 450 nm were determined using a microplate reader (SYNERGY-H1, BioTek, USA). Two columns of the plate were kept for negative control (medium only) and growth control (medium with HaCaT cell). All experiments were conducted in triplicate.

[3] = test system: C. acnes (BNCC 336649); details: for Concentration with antimicrobial activity >50%: C. acnes; for Concentration with antimicrobial activity >50% / Category of in vitro test antimicrobial activity against C. acnes: supplementary Table 5; for Antimicrobial activity > 50% against C. acnes: broth microdilution, 48 h, OD 630 nm
Procedure: The strain of C. acnes (BNCC 336649) was cultured in Wilkins-Chalgren Anaerobe Broth (QingDao RiShui Bio-technologies, 11071) at 37 °C under an anaerobic atmosphere performed by a Labiophy HL-B automatic hypoxic workstation (Dalian, Liaoning Province, Labiophy HL-B), inflated with a gas mix of 15% carbon dioxide, 83% nitrogen, and 2% hydrogen.
Logarithmic phase growth bacteria were used for antimicrobial testing.
To determine the MIC values, the broth microdilution method was used. […] Briefly, peptide samples were prepared as a stock solution in water and then diluted. 180 μL of the bacterial suspension (10^7 CFU/mL) and 20 μL of the tested sample were added together into 96-Well Deep Well Plates and incubated 24 h for E. coli and S. aureus or 48 h for C. acnes and C. albicans. For each test, two columns of the plate were kept for sterility control (broth only) and growth control (broth with bacterial inoculums, no antibiotics). The optical density of cultures was measured at 630 nm by a microplate reader (SYNERGY-H1, BioTek, USA) to estimate bacterial growth. All experiments were conducted in triplicate. We used ciprofloxacin (CPFX) as the antibiotic control for antimicrobial testing.

Substance | Hemolysis Index [1] | Cytotoxic Index [2] | HaCaT cell tolerance up to [2] [µg/mL] | also measured
AKRIVKLIKNFFRKL-NH2 [AMP-25] | 60 | 20 | 80 | –
GVFDWLKKLGKKLAG [AMP-14, AI designed peptide] | – | – | 80 | Concentration with antimicrobial activity >50% [3]: 12.5 µg/mL; Antimicrobial activity > 50% against C. acnes ([3]; at 25 µg/mL): Inhibit (A peptide was deemed to have antimicrobial activity if C. acnes growth was inhibited by more than 50% at a given concentration); Antimicrobial activity > 50% against C. acnes ([3]; at 50 µg/mL): Inhibit (A peptide was deemed to have antimicrobial activity if C. acnes growth was inhibited by more than 50% at a given concentration); Antimicrobial activity > 50% against C. acnes ([3]; at 100 µg/mL): Inhibit (A peptide was deemed to have antimicrobial activity if C. acnes growth was inhibited by more than 50% at a given concentration); Category of in vitro test antimicrobial activity against C. acnes [3]: Strong AMP
HFLGVVAKLVSKLF [AMP-38] | 16 | 10 | 80 | –
KKWRKVLKLIKRLVG-NH2 [AMP-12] | 40 | 16 | – | –
LSKWLKKLGKLLAG [AMP-33] | 20 | 20 | 80 | –
FKRLKKLFKKIWNWK [HPA3NT3, reference compound] | – | – | – | Hemolysis Index ([1]; ratio of EC90 (rabbit red blood cells) to MIC of C. acnes): 32; Cytotoxic Index ([2]; ratio of EC90 (HaCaT) to MIC of C. acnes): 8
GIFKKITGKLFKWIK [AMP-5] | 30 | 10 | 80 | –
GWAKRLATRLAKAIL-NH2 [AMP-27] | 6.4 | 12.8 | 320 | –
KKLACRLWKWLAKKA [AMP-21, AI designed peptide] | – | – | 80 | Concentration with antimicrobial activity >50% [3]: 12.5 µg/mL; Antimicrobial activity > 50% against C. acnes ([3]; at 25 µg/mL): Inhibit (A peptide was deemed to have antimicrobial activity if C. acnes growth was inhibited by more than 50% at a given concentration); Antimicrobial activity > 50% against C. acnes ([3]; at 50 µg/mL): Inhibit (A peptide was deemed to have antimicrobial activity if C. acnes growth was inhibited by more than 50% at a given concentration); Antimicrobial activity > 50% against C. acnes ([3]; at 100 µg/mL): Inhibit (A peptide was deemed to have antimicrobial activity if C. acnes growth was inhibited by more than 50% at a given concentration); Category of in vitro test antimicrobial activity against C. acnes [3]: Strong AMP
KKIFKRIVKIIKRLL [AMP-29] | 32 | 16 | – | –
KRIVHRLLKKLHSLF [AMP-9] | 30 | 20 | 160 | –
KILGKLLKWASKIW [AMP-31] | 20 | 8 | – | –
